Measurements as given in PubChem BioAssay AID463199 (Broad Institute, 2010).
Activity calls are given as the source filed them.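 How the source made its calls: active means AC50, the dose giving half-maximal effect, exceeds a fixed cutoff for a compound that rescues yeast growth under heat; inactive means the rest, inconclusive results apart.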

system: S. cerevisiae Burl-1 ts mutant growth, BacTiter-Glo, 38.5C 24 h; experiment: growth induction of Burl-1 ts yeast mutant, dose response, counter-screen for SUMOylation pathway inhibitor project, whole organism, S. cerevisiae, luminescence (AID 463199)

SMILES | AC50
C[C@@]12C(=O)Nc3cc(Cl)ccc3C(=O)N1[C@H]1c3ccccc3OC[C@@H]1[C@@H]2c1ccccc1 | > 42 µM (inactive)
CC(=O)Nc1ccc(-c2csc(NC(=O)C3CC(=O)N(c4ccc5c(c4)OCCO5)C3)n2)cc1 (stereo not drawn) | > 42 µM (inactive)
CC1=CC(=O)C=CC1(C)C(Cl)(Cl)Cl (stereo not drawn) | > 42 µM (inactive)
COc1ccc(NC(=O)CN(C)C(=O)/C=C/c2cn(-c3ccccc3)nc2-c2ccc(F)cc2)cc1 | > 42 µM (inactive)
CCCCSCCCNC(=O)Nc1cccc(OC)c1 | > 42 µM (inactive)
O=C(c1ccc(OC2CCN(CCc3ccccc3)CC2)cc1)N1CCCC1 | > 42 µM (inactive)
O=C(CSc1ncnc2nc[nH]c12)Nc1ccccc1C(F)(F)F | > 42 µM (inactive)
Nc1cc(Cl)ccc1N1CCOCC1 | > 42 µM (inactive)
CC(NC(=O)C1CCCCC1)C(=O)NC1=NCCS1 (stereo not drawn) | > 42 µM (inactive)
CC(C)(c1ccccc1)c1ccc(OCCN2CCOCC2)cc1 | > 42 µM (inactive)
CC(C)c1nc2n[nH]c(N)c2c2c1CCC2 | > 42 µM (inactive)
COC(=O)CN1C(=O)c2cccc3cccc1c23 | > 42 µM (inactive)
CCCC(=O)Nc1ccc(Sc2ccc([N+](=O)[O-])cc2)cc1 | > 42 µM (inactive)
Cc1ccc(S(=O)(=O)NCC(C)n2cncn2)cc1 (stereo not drawn) | > 42 µM (inactive)
COc1cc2c(=O)n(CCC(=O)NCC3CCCO3)c(=O)n(CC(=O)Nc3ccccc3C)c2cc1OC (stereo not drawn) | > 42 µM (inactive)
Oc1ccc(C2=CSC3=NCCN23)cc1O | > 42 µM (inactive)
NC(=O)CC(NC(=O)Cc1cccc2ccccc12)c1ccc(NCCCN2CCCC2=O)c([N+](=O)[O-])c1 (stereo not drawn) | > 42 µM (inactive)
CCOc1ncccc1C(=O)OCC(=O)N(CC)c1ccccc1 | > 42 µM (inactive)
CC(C)n1c(O)c(N=Nc2ccccn2)c2ccccc21 | > 42 µM (inactive)
CCn1c(SCC(=O)Nc2nc(-c3ccccc3)cs2)nnc1-c1ccccc1 | > 42 µM (inactive)
O=C(CSc1nc(-c2ccccc2)cc(=O)[nH]1)Nc1ccc(Br)cc1 | > 42 µM (inactive)
CCN1C(=S)N[C@@H](CCc2ccccc2)C(C(=O)OC)=C1C | > 42 µM (inactive)
Cc1cc(=O)oc2ccc(OC(=O)CC(C)C)cc12 | > 42 µM (inactive)
NS(=O)(=O)c1ccc(CCNC(=O)CN2CCN(c3ccc(F)cc3)CC2)cc1 | > 42 µM (inactive)
Cc1ccc(N(C(C)C(=O)O)S(=O)(=O)c2c(C)n[nH]c2C)cc1 (stereo not drawn) | > 42 µM (inactive)

SMILES | AC50
COc1cc(NC(=O)c2cc(Cl)ccc2Cl)ccc1-c1cc2ccccc2oc1=O | > 42 µM (inactive)
COc1cccc(NC(=O)CN(C)C(=O)c2ccccc2OCc2c(C)noc2C)c1 | > 42 µM (inactive)
Cc1nc2sc(C(c3ccco3)N3CCOCC3)c(O)n2n1 (stereo not drawn) | > 42 µM (inactive)
COc1ccccc1CNc1ncnc2nc[nH]c12 | > 42 µM (inactive)
COc1ccc(C2CC(c3cccs3)=NN2C(=O)c2ccccc2)cc1OC (stereo not drawn) | > 42 µM (inactive)
CCn1c(C)c(C(C)=O)c(N2CCN(c3ccc(F)cc3)CC2)nc1=S | > 42 µM (inactive)
COc1ccc(C2NC(=O)c3ccccc3O2)cc1 (stereo not drawn) | > 42 µM (inactive)
COc1cc(C(=O)OCC(=O)NC(C)CCc2ccccc2)cc(OC)c1OC (stereo not drawn) | > 42 µM (inactive)
CC12CC3(C)CC(C)(C1)CC(C(=O)NC(=S)N1CCCC1)(C2)C3 | > 42 µM (inactive)
CC(C)CCNC(=O)Cn1c(=O)oc2cc(S(=O)(=O)N3CC(C)CC(C)C3)ccc21 (stereo not drawn) | > 42 µM (inactive)
Cc1cccc(Cn2c(C(=O)OC(C)C)cc3c2ccn3C)c1 | > 42 µM (inactive)
Cc1cc(=O)c(C(=O)O)cn1Nc1ccc(Cl)cc1 | > 42 µM (inactive)
CCOC(=O)c1cc(C#N)c(Oc2ccccc2OC)nc1-c1ccccc1 | > 42 µM (inactive)
Cc1ccc(CNC(=O)CCn2cc(-c3ccc(C)cc3)nc2CCN)cc1 | > 42 µM (inactive)
Cc1cccc2nc(COc3ccc4ccccc4c3Br)cn12 | > 42 µM (inactive)
O=C(NCc1cccnc1)C1CCN(S(=O)(=O)c2cccnc2)CC1 | > 42 µM (inactive)
COc1ccc2c(c1)OC[C@H]1[C@H]2N2C(=O)c3cc(C)ccc3NC(=O)[C@@]2(C)[C@H]1c1ccccc1 | > 42 µM (inactive)
O=C(CCS(=O)(=O)c1ccc(Br)s1)NCc1ccccc1 | > 42 µM (inactive)
CC1(C)Oc2ccc3ccc(=O)oc3c2/C(=C/Nc2ccc(O)cc2)C1=O | > 42 µM (inactive)
CC(C)C(=O)Nc1cccc(-c2nc3ncccc3o2)c1 | > 42 µM (inactive)
CC(NC(=O)CCc1nnc(-c2ccc(-c3ccccc3)cc2)o1)c1nc2ccccc2[nH]1 (stereo not drawn) | > 42 µM (inactive)
COc1ccc(Cl)cc1C(=O)NCCc1ccc(S(=O)(=O)NC(=O)NC2CCCCC2)cc1 | > 42 µM (inactive)
S=C(Nc1ccccc1Cl)N1CCOCC1 | > 42 µM (inactive)
Cc1nn(C)c(C)c1/C=N/NC(=O)C(C)(C)Oc1ccc(Cl)cc1 | > 42 µM (inactive)
CC1CCCCN1C(=O)C(Cc1ccccc1)N1C(=O)C2CCCCC2C1=O (stereo not drawn) | > 42 µM (inactive)

SMILES | AC50
Cc1nnc(SCC(=O)NC(C)(C)C)n1NCc1ccc(Cl)cc1 | > 42 µM (inactive)
O=C(CSc1ncccn1)c1ccccc1Br | > 42 µM (inactive)
COc1cc2c(cc1OC)C(c1ccccc1[N+](=O)[O-])N(C(C)=O)CC2 (stereo not drawn) | > 42 µM (inactive)
CC(OC(=O)c1cc(S(=O)(=O)N2CCOCC2)ccc1F)C(=O)NCc1ccc2c(c1)OCO2 (stereo not drawn) | > 42 µM (inactive)
Cn1nc(C(C)(C)C)c([N+](=O)[O-])c1C(=O)Nc1ccccc1 | > 42 µM (inactive)
O=C(C1CCN(S(=O)(=O)N2CCC3(CC2)OCCO3)CC1)N1CCC(Cc2ccccc2)CC1 | > 42 µM (inactive)
O=C1c2ccccc2S(=O)(=O)N1Cc1cc(=O)n2ccsc2n1 | > 42 µM (inactive)
COCc1nnc(NC(=O)CC(C)C)s1 | > 42 µM (inactive)
COc1ccc2c(c1)OC[C@H]1[C@H]2N2C(=O)c3cc(F)ccc3NC(=O)[C@@]2(C)[C@H]1c1ccccc1 | > 42 µM (inactive)
CC(C)Cc1cc(CN2CCC(CO)(Cc3ccccc3)CC2)[nH]n1 | > 42 µM (inactive)
Cc1ccc2cccc(OCc3nnc(SCC(=O)O)n3C)c2n1 | > 42 µM (inactive)
CN(C)/C=N/NC(=O)c1ccccc1 | > 42 µM (inactive)
O=C(O)c1ccc(/C=N/NC(=O)c2cc(-c3ccc4c5c(cccc35)CC4)n[nH]2)cc1 | > 42 µM (inactive)
CN1C(=S)SC2CS(=O)(=O)CC21C (stereo not drawn) | > 21 µM (inactive)
CCN(CC)c1ncnc2ccc(Br)cc12 | > 42 µM (inactive)
Cn1c(SCC(=O)N/N=C/c2ccc([N+](=O)[O-])s2)nnc1-c1ccc(Cl)cc1 | > 42 µM (inactive)
NC1=NC(=Nc2ccc(S(N)(=O)=O)cc2)c2ccccc21 | > 21 µM (inactive)
COc1ccc(-n2c(C)cc(C(=O)CN3C(=O)NC4(CCCc5sccc54)C3=O)c2C)cc1 (stereo not drawn) | > 42 µM (inactive)
Cc1ccc2c(C)c(C(=O)N(C)C(C)c3ccncn3)oc2c1C (stereo not drawn) | > 42 µM (inactive)
Cc1ccccc1-c1nnc(SCc2ccc(F)cc2)o1 | > 42 µM (inactive)
O=C(CSc1nnc(-c2ccccc2Cl)o1)Oc1ccc(Br)cc1 | > 42 µM (inactive)
Cc1ccc(Cn2c(NCCc3ccccc3)nc3c2c(=O)n(C)c(=O)n3C)cc1 | > 42 µM (inactive)
CC(OC(=O)c1cnccn1)C(=O)c1ccccc1 (stereo not drawn) | > 42 µM (inactive)
CCNC(=O)C1CC(=O)N(Cc2ccc3c(c2)OCO3)C(=Nc2ccc(F)cc2)S1 (stereo not drawn) | > 42 µM (inactive)
O=C(NCc1ccco1)C1CC(=O)N(c2ccc(Cl)cc2)C1 (stereo not drawn) | > 42 µM (inactive)

SMILES | AC50
O=C(c1ccccc1F)N1CCN=C1SCc1cccnc1 | > 42 µM (inactive)
COc1ccc(C(=O)N/C(=C\c2cn(C)c3ccccc23)C(=O)OCCN(C)C)cc1 | > 42 µM (inactive)
O=C1NC(=O)N(Cc2ccccc2)C1=O | > 42 µM (inactive)
CC(C)COc1ccc(C(=O)Nc2ccc([N+](=O)[O-])cc2)cc1 | > 42 µM (inactive)
COc1ccc(OCC(O)CN2C(=O)NC(C)(C)C2=O)cc1 (stereo not drawn) | > 42 µM (inactive)
O=C(OCCCN=C1NS(=O)(=O)c2ccccc21)c1cccs1 | > 42 µM (inactive)
Cc1cc(Nc2nc3c(c(=O)n(C)c(=O)n3C)n2C)n(-c2ccc(Cl)cc2)n1 | > 42 µM (inactive)
CN(C)S(=O)(=O)c1cccc(NC(=O)COc2nc3ccccc3nc2N2CCOCC2)c1 | > 42 µM (inactive)
O=C(Nc1ccsc1C(=O)O)c1cccc(C(F)(F)F)c1 | > 42 µM (inactive)
CCCC(=O)Oc1c(S(=O)(=O)c2ccc(C)cc2)c(C)nn1C(C)(C)C | > 42 µM (inactive)
NNc1nc2sc3c(c2c(=O)n1-c1ccccc1)CCCC3 | > 42 µM (inactive)
O=C(NCc1ccccc1Cl)c1ccc2c(c1)OCO2 | > 42 µM (inactive)
COc1ccc(/C=C2/SC(=O)N(NS(=O)(=O)c3ccccc3)C2=S)cc1OC | > 42 µM (inactive)
Cc1[nH]nc2c1C(c1cccs1)C1=C(CC(C)(C)CC1=O)N2 (stereo not drawn) | > 42 µM (inactive)
Cc1cc([N+](=O)[O-])nn1CC(=O)NNC(=S)Nc1ccc([N+](=O)[O-])cc1 | > 21 µM (inactive)
Cc1ccc(NS(=O)(=O)c2csc(C(N)=O)c2)cc1C | > 42 µM (inactive)
CCCCOc1ccc(C(=O)Nc2ccc(N3CCN(C)CC3)cc2)cc1 | > 42 µM (inactive)
CCn1c(SCC(=O)N/N=C/c2ccccc2OCC(=O)O)nnc1-c1ccc(C(C)(C)C)cc1 | > 42 µM (inactive)
O=C(c1cnn2c(C(F)(F)F)cc(-c3ccco3)nc12)N1CCCc2ccccc21 | > 42 µM (inactive)
Cn1c(SCC(=O)Nc2nnc(-c3ccccc3)o2)nnc1C1CC1 | > 42 µM (inactive)
COC(=O)c1cc2occc2n1Cc1nc(-c2ccccc2C)oc1C | > 42 µM (inactive)
COc1ccc(-n2c3c(cc(C(=O)NCC(=O)c4ccccc4)c2=O)C(=O)CC(C)(C)C3)cc1 | > 42 µM (inactive)
COc1ccc(-c2cn(-c3ccc(C)cc3)c(=O)n2CC(=O)Nc2ccc(OC)c(OC)c2)cc1 | > 42 µM (inactive)
